Source: US20220347158A1, “Methods of Treating Conditions Related to the S1P1 Receptor” (Arena Pharmaceuticals, Inc., priority 2019, published 2022)
Read-outs that look alike come from different tables or passages of the source.

Experiments:
UC patients [1] = experiment: Phase 2 dose-ranging study in UC patients; type: in vivo, human
Excerpt: Further, while UC and CD have overlapping features, there are differences in pathophysiology, disease location, and extent of disease that may dictate different doses for the treatment of UC and CD. Described herein is the elucidation of safe and efficacious dosing of Compound 1 for the treatment of CD.
(§1) Compound 1, or a pharmaceutically acceptable salt, solvate, or hydrate thereof, is an orally administered, selective, synthetic sphingosine 1-phosphate (S1P) receptor 1, 4, 5 modulator. […] Its safety and tolerability have been evaluated in Phase 1 studies with healthy adult subjects at single doses up to 5 mg and repeated doses up to 4 mg once daily (“QD” or “qd”).

lymphocyte = type: in vivo, human
Method: In another Phase 1 study, 30 adult subjects received 2 mg of Compound 1 qd (Days 1 to 7), then 3 mg of Compound 1 qd (Days 8 to 12), and finally 4 mg of Compound 1 qd (Days 13 to 14). […] After treatment with Compound 1, lymphocyte reductions of 46% and 65% for Day 8 and Day 15, respectively, were observed.

[2] = system: peripheral blood lymphocytes; experiment: Phase 1, single ascending dose clinical trial in healthy subjects; type: in vivo, human
UC patients [3] = experiment: Open-label extension study after the Phase 2 UC study; type: in vivo, human; settings: up to 46 weeks
Method: as §1

[4] = system: peripheral lymphocyte counts; experiment: Phase 1, multiple ascending dose clinical trial in healthy subjects; type: in vivo, human
Excerpt: […] […] After treatment with Compound 1, lymphocyte reductions of 46% and 65% for Day 8 and Day 15, respectively, were observed.

[5] = system: peripheral lymphocyte counts; experiment: Phase 1 studies taken together (safety, tolerability, lymphocyte counts); type: in vivo, human
Method: Compound 1, or a pharmaceutically acceptable salt, solvate, or hydrate thereof, is an orally administered, selective, synthetic sphingosine 1-phosphate (S1P) receptor 1, 4, 5 modulator. […] Its safety and tolerability have been evaluated in Phase 1 studies with healthy adult subjects at single doses up to 5 mg and repeated doses up to 4 mg once daily (“QD” or “qd”). […] In another Phase 1 study, 30 adult subjects received 2 mg of Compound 1 qd (Days 1 to 7), then 3 mg of Compound 1 qd (Days 8 to 12), and finally 4 mg of Compound 1 qd (Days 13 to 14). […] After treatment with Compound 1, lymphocyte reductions of 46% and 65% for Day 8 and Day 15, respectively, were observed.

subjects with CD = settings: Phase 2; cited from earlier work

SMILES	endoscopic and symptomatic improvements versus placebo (UC patients [1]; UC patients, 2 mg QD for 12 weeks)	efficacy over placebo (UC patients [1]; subjects with UC, 2 mg)	lymphocyte reductions (lymphocyte; Day 8 (after 2 mg qd Days 1 to 7))	lymphocyte reductions (lymphocyte; Day 15 (after 2 mg Days 1 to 7, 3 mg Days 8 to 12, 4 mg Days 13 to 14))	decline in the absolute number of peripheral blood lymphocytes ([2]; single 3 mg and 5 mg doses)	declines in peripheral blood lymphocytes ([2]; single doses up to 1 mg)	beneficial effects in open-label extension (UC patients [3])	safety and tolerability ([4]; up to 21 days of dosing with 2 mg or 3 mg)	peripheral lymphocyte counts ([4]; up to 21 days of dosing, 2 mg and 3 mg)	reductions in peripheral lymphocyte counts ([5]; Phase 1 studies together, 2 mg and 3 mg)	tolerability and safety ([5]; Phase 1 studies together, doses up to 4 mg)	safety and tolerability ([5]; adult subjects treated at various doses, Phase 1 single doses up to 5 mg, repeated doses up to 4 mg once daily)	efficacy over placebo (subjects with CD)
O=C(O)C[C@H]1CCc2c1[nH]c1ccc(OCc3ccc(C4CCCC4)c(C(F)(F)F)c3)cc21 [Compound 1, (R)-2-(7-(4-cyclopentyl-3-(trifluoromethyl)benzyloxy) -1,2,3,4-tetrahydrocyclopenta[b]indol-3-yl)acetic acid]	clinically meaningful and statistically significant endoscopic and symptomatic improvements	improved efficacy	46%	65%	clear dose-responsive decline	only modest declines	Sustained beneficial effects	safe and well-tolerated	reduced peripheral lymphocyte counts	significant reductions	well-tolerated with no significant safety findings	safe and well-tolerated	
CCCCCCCOc1ccc(CCC(N)(CO)CO)cc1C(F)(F)F [amiselimod]													did not result in improved efficacy over placebo
